Reference: article PMC11311842, “Radiosynthesis and Preclinical Evaluation of ^18F-Labeled Estradiol Derivatives with Different Lipophilicity for PET Imaging of Breast Cancer” (Cancers, 2024)

Columns and labels:
[1] = Determination of logD7.4 (n-octanol/PBS); format: physicochemical; conditions: n-octanol/PBS pH 7.4; mean ± SD, three independent experiments
Description: For the determination of the octanol–water coefficient, an aliquot of the radiotracer was added to PBS (500 µL, pH 7.4) and n-octanol (500 µL) in an Eppendorf tube. The mixture was vortexed and subsequently centrifuged, each for 1 min. Three samples (each 100 µL) were taken from both the PBS and the n-octanol layer and measured using a γ-counter (Wallac Wizard, PerkinElmer, Waltham, MA, USA). The logD7.4 was expressed as log(cpmoctanol/cpmPBS) and reported as mean ± SD. The determination of logD7.4 was performed in three independent experiments, each performed in triplicate.

MCF-7 cells = assay: Stability in cells (radio-HPLC of cell lysate); format: in vitro ADME, human; conditions: 90 min incubation, 37 °C, absence of serum
Description: ^18F-TA-Glyco-EE was incubated for 90 min at 37 °C with MCF-7 cells (350,000 cells/well, seeded one day prior to the experiment in 24-well plates) in cell culture medium. After washing twice with ice-cold PBS, the cells were scraped off, and 200 µL PBS was added for resuspension. The cell suspension was transferred to Eppendorf tubes, homogenized using ultrasound (Bandelin sonoplus HD2070 ultrasonic homogenizer, room temperature, BANDELIN electronic GmbH, Berlin, Germany) and then centrifuged. The supernatant was quenched in 10% TFA, and after centrifugation the resulting supernatant was analyzed by radio-HPLC (Chromolith RP-18e, 100 × 4.6 mm, 10–100% acetonitrile (containing 0.1% TFA) in water (containing 0.1% TFA) over 5 min, 4 mL/min).

ER+ MCF-7 cells = assay: Cellular uptake assay in ER+ cells; format: cell-based, human
Description: One day prior to the experiment, MCF-7 and MDA-MB-231 cells were seeded in 24-well plates (350,000 cells/well). The cells were washed once with cell medium. The cells were incubated with the respective radiotracer in cell medium (510 µL) for 10, 20, 30, 60, 90, 120 min at 37 °C in the absence and presence of estradiol (E2, final concentration of 72 µM). After incubation, the plates were set on ice and washed with ice-cold PBS twice, following cell lysis and detachment with NaOH (0.1 M, 750 µL, 37 °C). The cells were transferred to counting tubes, and the radioactivity was measured using a γ-counter (Wallac Wizard, PerkinElmer, Waltham, MA, USA). The protein concentration of each well was determined in duplicate using Bradford reagent (Bio-Rad Laboratories GmbH, Feldkirchen, Germany). The cellular uptake assay was performed in 2–4 independent experiments, each performed in quadruplicate for each time point.

ER+ MCF-7 tumor slices = assay: In vitro autoradiography of MCF-7 tumor slices; format: binding, human; conditions: 60 min, room temperature, with or without E2 (72 µM)
Description: (§1) MCF-7, MDA-MB231 and T47D tumors grown in nude mice were collected and frozen in a hexane/dry ice bath (−70 °C). Tumor slices (14 µm) were prepared on a cryostat microtome HM 500 O (Microm, Walldorf, Germany), thaw-mounted on HistoBond® adhesive glass slides (Marienfeld, Lauda-Königshofen, Germany) and stored at −80 °C. For in vitro autoradiography studies, the tumor tissue sections were thawed and pre-incubated in incubation buffer (50 mM Tris HCl, 5 mM MgCl2, 0.2% bovine serum albumin (BSA), pH 7.4) at room temperature for 15 min. Then, the sections were transferred to incubation buffer containing ^18F-TA-Glyco-EE (3–5 MBq) in a total volume of 70 mL. For the determination of non-specific binding, separate sections were incubated with ^18F-TA-Glyco-EE in the presence of E2 (72 µM). After an incubation time of 60 min, the sections were washed three times with incubation buffer, followed by a short dip in ice-cold distilled water. The slices were carefully dried in a stream of warm air and finally placed on a phosphor imager screen (Fuji Imaging Plate BAS-IP SR 2025 E) overnight prior to readout (30 µm resolution) using the HD-CR-35 Bio scanner (Elysia-Raytest, Straubenhardt, Germany). […] Regions of interest were analyzed from 3–4 tumor slices from the MCF-7, MDA-MB231 and T47D tumors, and mean values of the intensity per area were calculated.

ER+ T47D tumor slices = assay: In vitro autoradiography of T47D tumor slices; format: binding, human; conditions: 60 min, room temperature, with or without E2 (72 µM)
Description: as §1

[2] = tested on: ER- MDA-MB-231 tumor slices; assay: In vitro autoradiography of MDA-MB-231 tumor slices; format: binding, human; conditions: 60 min, room temperature, with or without E2 (72 µM)
Description: as §1

Q: Which results are given for `CC(=O)OC1C(C[18F])OC(n2cc(C3(O)CCC4C5CCc6cc(O)ccc6C5CCC43C)nn2)C(OC(C)=O)C1OC(C)=O` (stereo not shown) [^18F-TA-Glyco-EE]?
A: logD7.4 [1]: 2.3 ± 0.1; Stability in MCF-7 cells (intracellular radioactivity, HPLC) (MCF-7 cells): without any significant deacetylation; Cellular uptake relative to ^18F-PEG-EE and ^18F-Glyco-EE (ER+ MCF-7 cells; ER+ MCF-7 cells): 10 fold; Cellular uptake in MCF-7 cells (ER+ MCF-7 cells; after 60 min, 37 °C, absence of E2): 270 %/mg; Binding to MCF-7 tumor sections (autoradiography) (ER+ MCF-7 tumor slices): high specific binding; Binding to T47D tumor sections (autoradiography) (ER+ T47D tumor slices): high specific binding; Binding to MDA-MB-231 tumor sections (autoradiography) [2]: negligible binding
